# US20160324992A1, “IDENTIFICATION AND TREATMENT OF VULNERABLE PLAQUES” (OTTAWA HEART INSTITUTE RESEARCH CORPORATION, priority 2015, published 2016)
# Experiments:
# [1] = system: bone-marrow-derived macrophages (BMDMs); format: cell-based
# Experimental: (§1) Bone-marrow derived macrophages. Bone-marrow derived macrophages (BMDMs) were isolated from femurs of adult VVT or Rip3^−/− mice and differentiated into macrophages using DMEM supplemented with 10% FBS and 1% penicillin-streptomycin plus either 20% L929 conditioned media or 20 ng/mL mouse M-CSF for 7-10 days. To polarize macrophages to M1 or M2, BMDMs were incubated on day 7 with 1 μg/mL LPS and 100 ng/mL IFNγ or 10 ng/mL IL-4 respectively for 24 h. Damage Associated Molecular Patterns (DAMPs) were obtained by subjecting BMDMs to 3×30 min freeze-thaw cycle or treatment with 100 ng/mL LPS and 50 μM zVAD.fmk for 24 hours, after which the media was collected and added to naïve cells at indicated ratios.
# (§2) Cell viability assays. Cell death was determined by measuring lactate dehydrogenase (LDH) release into the media. Briefly, cells were treated with 100 μg/ml oxLDL in the presence or absence of 25 μM zVAD.fmk or 50 μM necrostatin-1 (Nec-1) for 24 hours and media was collected and centrifuged to pellet cell debris. The amount of LDH in media was measured in a kinetic assay by adding PBS containing 0.02% NADH and 0.03% sodium pyruvate and measuring absorbance at 340 nm for 10 minutes at 1 minute intervals. The slope of the curve provides a measure of cell death, which was expressed as fold change relative to control.
# as §1, with “Rip3−/−” for “Rip3^−/−”
# as §2, with “ug/ml” for “μg/ml”, “uM” for “μM”
# [2] = system: MLKL; experiment: Western blot of pMLKL in BMDMs; format: cell-based, mouse
# Experimental: Western blot analysis. For western blot analysis of RIP3, cells were lysed in 1.25× sample buffer (83 mM Tris pH 6.8, 6.7% SDS, 13.3% Glycerol, 1.3% β-mercaptoethanol, 0.03% bromophenol blue) and boiled at 100° C. for 5 minutes prior to being subjected to SDS-PAGE and western blot analysis. PVDF membranes were blocked with 5% skim milk, followed by incubation with RIP3 (ProSci Inc, 1:500) or HSP90 (Santa Cruz Biotechnology, 1:1000) antibodies. For analysis of MLKL protein, cells were lysed in ice-cold M2 lysis buffer (50 mM NaF, 20 mM Tris, pH 7.0, 0.5% NP40, 250 mM NaCl, 3 mM EDTA, 3 mM EGTA, supplemented with Roche protease and phosphatase inhibitor cocktails) for 30 mins before centrifugation to pellet insoluble component. Samples were mixed 3:1 with 4× sample loading buffer (Bio-rad) prior to SDS PAGE and western blot analysis. PVDF membranes were blocked in 5% BSA and probed with MLKL (Millipore, 1:500) or GAPDH (Millipore, 1:1000) antibodies. Goat anti-mouse (1:2500) or anti-rabbit (1:5000) or anti-rat (1:2500) IRDye® secondary antibodies (Rockland) were utilized. The protein bands were visualized using Odyssey Infrared Imaging System (LI-COR Biotechnology).
# [3] = system: RIP3; experiment: Western blot of RIP3 phosphorylation (band shift) in BMDMs; format: cell-based, mouse
# Experimental: Western blot analysis. For western blot analysis of RIP3, cells were lysed in 1.25×sample buffer (83 mM Tris pH 6.8, 6.7% SDS, 13.3% Glycerol, 1.3% β-mercaptoethanol, 0.03% bromophenol blue) and boiled at 100° C. for 5 minutes prior to being subjected to SDS-PAGE and western blot analysis as previously described (Robinson et al., 2012). PVDF membranes were blocked with 5% skim milk, followed by incubation with RIP3 (ProSci Inc, 1:500) or HSP90 (Santa Cruz Biotechnology, 1:1000) antibodies. For analysis of MLKL protein, cells were lysed in ice-cold M2 lysis buffer (50 mM NaF, 20 mM Tris, pH 7.0, 0.5% NP40, 250 mM NaCl, 3 mM EDTA, 3 mM EGTA, supplemented with Roche protease and phosphatase inhibitor cocktails) for 30 mins before centrifugation to pellet insoluble component. Samples were mixed 3:1 with 4×sample loading buffer (Bio-Rad) prior to SDS PAGE and western blot analysis. PVDF membranes were blocked in 5% BSA and probed with MLKL (Millipore, 1:500) or GAPDH (Millipore, 1:1000) antibodies. Goat anti-mouse (1:2500) or anti-rabbit (1:5000) or anti-rat (1:2500) IRDye® secondary antibodies (Rockland) were utilized. The protein bands were visualized using Odyssey Infrared Imaging System (LI-COR Biotechnology).
# Western blot analysis. […]
structure (smiles),measurement,setting,value
"CN1C(=O)C(Cc2c[nH]c3ccccc23)NC1=S (stereo not shown) [Nec-1, necrostatin-1]",cell death with compound alone (in words),[1],did not promote cell death
same,"cell death (LDH release), fold change relative to control","[1]; BMDMs, 100 μg/mL oxLDL + 50 μM Nec-1, 24 h, oxLDL alone 3.9±0.6-fold, mean±SEM",2.3±0.4 fold
same,inhibition of oxLDL+zVAD.fmk-induced cell death (in words),"[1]; BMDMs, oxLDL + zVAD.fmk + Nec-1, 24 h",similarly inhibited
same,inhibition of oxLDL-induced cell death (in words),"[1]; M2-polarized macrophages, oxLDL 24 h",similarly inhibited
same,oxLDL-induced MLKL phosphorylation (in words),[2],dampened
same,RIP3 phosphorylation induced by oxLDL and DAMPs (in words),"[3]; BMDMs co-incubated with oxLDL and DAMPs, 8 hours",can be inhibited
same,oxLDL-induced RIP3 phosphorylation (in words),"[3]; BMDMs, oxLDL±zVAD.fmk±Nec-1, 8 hours",dampened
